From ChEMBL document CHEMBL1136209, “Bone-targeted 2,6,9-trisubstituted purines: novel inhibitors of Src tyrosine kinase for the treatment of bone diseases” (Bioorg Med Chem Lett, 2003)
One block for each compound: values may come before it.

How the values were obtained:
[1] = Compound was tested for its relative bone-targeting affinity using a hydroxyapatite column
[2] = biological target: Cyclin-dependent kinase 1 (Homo sapiens) (UniProt P06493); assay: Selectivity for cyclin-dependent kinase-1, CDK1
[3] = biological target: cAMP-dependent protein kinase (PKA) (Homo sapiens) (UniProt P22694+P17612+P22612); assay: Selectivity for PKA; type: protein assay
[4] = biological target: T1, Tyrosine-protein phosphatase non-receptor type 1 (Homo sapiens) (UniProt P18031); assay: Selectivity towards Protein phosphatase, PTP1b
T1 sequence (whole entry): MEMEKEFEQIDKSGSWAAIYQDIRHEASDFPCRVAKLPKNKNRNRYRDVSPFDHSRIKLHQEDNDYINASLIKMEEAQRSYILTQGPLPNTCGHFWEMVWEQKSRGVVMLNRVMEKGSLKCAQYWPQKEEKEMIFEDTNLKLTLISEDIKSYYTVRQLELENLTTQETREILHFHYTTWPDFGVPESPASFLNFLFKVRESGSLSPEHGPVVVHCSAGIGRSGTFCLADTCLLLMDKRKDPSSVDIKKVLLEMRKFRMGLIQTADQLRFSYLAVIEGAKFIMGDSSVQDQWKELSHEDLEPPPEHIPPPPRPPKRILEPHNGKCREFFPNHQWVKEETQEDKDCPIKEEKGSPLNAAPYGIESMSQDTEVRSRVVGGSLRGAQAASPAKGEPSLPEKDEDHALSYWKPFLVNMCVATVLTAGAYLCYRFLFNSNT

[5] = biological target: DNA-dependent protein kinase catalytic subunit (Homo sapiens) (UniProt P78527); assay: Selectivity for Protein kinase, DNAPK
[6] = biological target: Serine/threonine-protein kinase pim-1 (Homo sapiens) (UniProt P11309); assay: Selectivity towards Protein kinase, PIM1
[7] = Selectivity towards Protein phosphatase, TC-PTP
[8] = biological target: Glycogen synthase kinase-3 beta (Homo sapiens) (UniProt P49841); assay: Selectivity for GSK3-beta
[9] = biological target: Casein kinase II (Homo sapiens) (UniProt P67870+P68400+P19784); assay: Selectivity for casein kinase II, CK2; type: protein-complex assay
[10] = biological target: Tyrosine-protein kinase Fyn (Homo sapiens) (UniProt P06241); assay: Selectivity for Fyn kinase
[11] = biological target: Tyrosine-protein kinase CSK (Homo sapiens) (UniProt P41240); assay: Selectivity over Protein kinase CSK (100-500)
[12] = biological target: Tyrosine-protein kinase Lck (Homo sapiens) (UniProt P06239); assay: Selectivity p56 Lck tyrosine kinase
[13] = biological target: T2, Scaffold protein ILK (Homo sapiens) (UniProt Q13418); assay: Selectivity towards Protein kinase, ILK1
T2 sequence (whole entry): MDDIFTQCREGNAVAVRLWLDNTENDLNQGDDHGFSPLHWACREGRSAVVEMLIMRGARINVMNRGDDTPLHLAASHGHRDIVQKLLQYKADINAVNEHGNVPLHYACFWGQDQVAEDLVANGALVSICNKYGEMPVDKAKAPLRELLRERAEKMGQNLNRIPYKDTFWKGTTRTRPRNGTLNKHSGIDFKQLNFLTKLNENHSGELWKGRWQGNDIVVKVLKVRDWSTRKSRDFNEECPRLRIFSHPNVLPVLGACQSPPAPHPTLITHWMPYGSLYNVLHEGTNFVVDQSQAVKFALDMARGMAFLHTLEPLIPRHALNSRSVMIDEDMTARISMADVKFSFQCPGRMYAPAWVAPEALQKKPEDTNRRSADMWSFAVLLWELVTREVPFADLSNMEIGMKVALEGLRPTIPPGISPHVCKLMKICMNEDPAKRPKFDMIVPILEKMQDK

[14] = Selectivity towards Protein kinase, EST-PT1
[15] = biological target: Serine/threonine-protein kinase pim-1 (Homo sapiens) (UniProt P11309); assay: Selectivity for pim-1 oncogene
[16] = biological target: Receptor-type tyrosine-protein phosphatase F (Homo sapiens) (UniProt P10586); assay: Selectivity towards Protein phosphatase, LAR
[17] = biological target: Protein kinase C (PKC) (Homo sapiens) (UniProt O94806+P41743+P17252+P05129+Q05655+P05771+Q05513+Q02156+P24723+Q15139+Q04759); assay: Selectivity for Protein kinase, PKC; type: protein assay
[18] = biological target: T3, Serine/threonine-protein kinase 3 (Homo sapiens) (UniProt Q13188); assay: Selectivity for Serine/threonine kinase 3
T3 sequence (whole entry): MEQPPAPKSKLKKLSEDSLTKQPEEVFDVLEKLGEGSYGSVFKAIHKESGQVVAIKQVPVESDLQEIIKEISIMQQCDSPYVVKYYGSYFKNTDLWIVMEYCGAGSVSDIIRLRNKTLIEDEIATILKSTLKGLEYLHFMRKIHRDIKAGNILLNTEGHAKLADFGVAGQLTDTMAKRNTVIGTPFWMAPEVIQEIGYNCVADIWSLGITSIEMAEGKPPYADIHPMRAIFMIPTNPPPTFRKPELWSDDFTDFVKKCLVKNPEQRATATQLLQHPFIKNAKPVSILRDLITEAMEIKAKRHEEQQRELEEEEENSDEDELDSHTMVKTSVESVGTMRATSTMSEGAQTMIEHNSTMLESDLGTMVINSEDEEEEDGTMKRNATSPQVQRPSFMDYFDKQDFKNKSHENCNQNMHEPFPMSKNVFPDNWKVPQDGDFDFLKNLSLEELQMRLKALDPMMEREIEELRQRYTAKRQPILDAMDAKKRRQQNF

[19] = biological target: Cyclin-dependent kinase 5 (Homo sapiens) (UniProt Q00535); assay: Selectivity for cyclin-dependent kinase-5, CDK5
[20] = biological target: T4, Cyclin-dependent kinase 2 (Homo sapiens, UniProt P24941); assay: Selectivity for cyclin-dependent kinase 2, CDK2
[21] = biological target: Mitogen-activated protein kinase 3 (Homo sapiens) (UniProt P27361); assay: Selectivity for mitogen-activated protein kinase, ERK1
[22] = biological target: Wee1-like protein kinase (Homo sapiens) (UniProt P30291); assay: Selectivity for Protein kinase WEE1
[23] = biological target: Serine/threonine-protein kinase PAK 3 (Homo sapiens) (UniProt O75914); assay: Selectivity for p21-activated kinase-3, PAK3
[24] = Selectivity towards Protein phosphatase, MEG2
[25] = biological target: T4, Cyclin-dependent kinase 2; assay: Inhibition of Cyclin-dependent kinase 2 (CDK2)

Sequence of Serine/threonine-protein kinase pim-1 (Homo sapiens) (P11309 whole entry, looked up): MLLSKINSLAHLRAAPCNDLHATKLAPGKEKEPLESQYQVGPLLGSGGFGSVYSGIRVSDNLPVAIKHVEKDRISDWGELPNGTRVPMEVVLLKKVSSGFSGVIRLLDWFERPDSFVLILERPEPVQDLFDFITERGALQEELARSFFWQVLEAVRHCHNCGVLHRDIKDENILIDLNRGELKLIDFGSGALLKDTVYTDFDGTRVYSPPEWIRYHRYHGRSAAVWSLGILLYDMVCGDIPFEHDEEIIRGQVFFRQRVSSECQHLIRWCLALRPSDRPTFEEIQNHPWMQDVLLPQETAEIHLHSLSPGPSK
Sequence of Cyclin-dependent kinase 1 (Homo sapiens) (P06493 whole entry, looked up): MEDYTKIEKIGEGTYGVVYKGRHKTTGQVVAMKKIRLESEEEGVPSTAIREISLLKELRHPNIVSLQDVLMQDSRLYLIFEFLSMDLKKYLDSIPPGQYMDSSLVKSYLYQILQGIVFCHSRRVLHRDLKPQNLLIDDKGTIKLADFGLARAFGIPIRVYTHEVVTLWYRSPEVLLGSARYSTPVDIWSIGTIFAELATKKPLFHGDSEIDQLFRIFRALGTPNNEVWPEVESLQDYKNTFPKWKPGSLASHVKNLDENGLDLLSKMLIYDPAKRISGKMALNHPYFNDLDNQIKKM
Sequence of Cyclin-dependent kinase 5 (Homo sapiens) (Q00535 whole entry, looked up): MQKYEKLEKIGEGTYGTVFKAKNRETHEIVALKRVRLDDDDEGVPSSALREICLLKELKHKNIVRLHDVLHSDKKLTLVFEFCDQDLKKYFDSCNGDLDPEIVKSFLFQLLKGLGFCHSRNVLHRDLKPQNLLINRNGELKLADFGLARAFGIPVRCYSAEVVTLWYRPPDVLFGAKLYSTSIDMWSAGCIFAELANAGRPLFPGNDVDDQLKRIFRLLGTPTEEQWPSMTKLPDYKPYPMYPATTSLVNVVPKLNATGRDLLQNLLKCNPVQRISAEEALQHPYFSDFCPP
Sequence of Glycogen synthase kinase-3 beta (Homo sapiens) (P49841 whole entry, looked up): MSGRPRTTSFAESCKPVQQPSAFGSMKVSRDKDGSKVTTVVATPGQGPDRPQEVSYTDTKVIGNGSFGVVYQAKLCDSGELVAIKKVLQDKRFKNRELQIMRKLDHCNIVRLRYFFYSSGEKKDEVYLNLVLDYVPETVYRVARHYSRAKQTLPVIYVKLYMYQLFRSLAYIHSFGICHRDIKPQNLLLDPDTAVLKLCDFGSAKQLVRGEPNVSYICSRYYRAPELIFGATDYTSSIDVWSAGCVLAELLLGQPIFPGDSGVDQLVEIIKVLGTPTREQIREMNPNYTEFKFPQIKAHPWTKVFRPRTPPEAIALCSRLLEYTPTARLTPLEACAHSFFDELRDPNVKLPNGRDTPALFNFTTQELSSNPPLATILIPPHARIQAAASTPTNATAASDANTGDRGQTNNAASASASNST
Sequence of Tyrosine-protein kinase Lck (Homo sapiens) (P06239 2-509 limits assumed): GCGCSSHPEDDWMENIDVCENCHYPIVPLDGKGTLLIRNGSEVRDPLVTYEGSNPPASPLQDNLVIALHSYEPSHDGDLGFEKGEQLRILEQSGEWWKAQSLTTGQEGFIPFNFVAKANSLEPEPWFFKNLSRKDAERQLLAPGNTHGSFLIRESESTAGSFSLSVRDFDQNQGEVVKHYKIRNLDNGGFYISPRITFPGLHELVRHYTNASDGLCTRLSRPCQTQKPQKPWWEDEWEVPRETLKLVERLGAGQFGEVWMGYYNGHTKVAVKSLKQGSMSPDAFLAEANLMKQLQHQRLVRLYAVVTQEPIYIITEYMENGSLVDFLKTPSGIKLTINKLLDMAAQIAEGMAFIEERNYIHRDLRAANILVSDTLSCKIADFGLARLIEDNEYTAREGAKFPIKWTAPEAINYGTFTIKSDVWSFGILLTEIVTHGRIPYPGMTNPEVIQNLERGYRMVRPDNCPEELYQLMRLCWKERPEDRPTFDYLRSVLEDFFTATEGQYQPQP
Sequence of Tyrosine-protein kinase CSK (Homo sapiens) (P41240 2-450 limits assumed): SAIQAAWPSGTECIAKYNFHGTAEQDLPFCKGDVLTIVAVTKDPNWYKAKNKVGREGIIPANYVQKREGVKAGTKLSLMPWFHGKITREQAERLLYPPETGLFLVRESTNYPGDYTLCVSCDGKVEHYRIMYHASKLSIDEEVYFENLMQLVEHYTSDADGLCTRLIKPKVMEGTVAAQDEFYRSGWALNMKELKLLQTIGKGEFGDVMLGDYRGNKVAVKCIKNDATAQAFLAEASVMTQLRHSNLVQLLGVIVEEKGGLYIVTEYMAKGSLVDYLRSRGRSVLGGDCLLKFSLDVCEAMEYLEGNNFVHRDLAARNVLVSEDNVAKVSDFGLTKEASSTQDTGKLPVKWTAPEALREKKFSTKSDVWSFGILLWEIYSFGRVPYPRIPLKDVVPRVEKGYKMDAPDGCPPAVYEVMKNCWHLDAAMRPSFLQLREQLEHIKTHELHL
Sequence of Tyrosine-protein kinase Fyn (Homo sapiens) (P06241 2-537 limits assumed): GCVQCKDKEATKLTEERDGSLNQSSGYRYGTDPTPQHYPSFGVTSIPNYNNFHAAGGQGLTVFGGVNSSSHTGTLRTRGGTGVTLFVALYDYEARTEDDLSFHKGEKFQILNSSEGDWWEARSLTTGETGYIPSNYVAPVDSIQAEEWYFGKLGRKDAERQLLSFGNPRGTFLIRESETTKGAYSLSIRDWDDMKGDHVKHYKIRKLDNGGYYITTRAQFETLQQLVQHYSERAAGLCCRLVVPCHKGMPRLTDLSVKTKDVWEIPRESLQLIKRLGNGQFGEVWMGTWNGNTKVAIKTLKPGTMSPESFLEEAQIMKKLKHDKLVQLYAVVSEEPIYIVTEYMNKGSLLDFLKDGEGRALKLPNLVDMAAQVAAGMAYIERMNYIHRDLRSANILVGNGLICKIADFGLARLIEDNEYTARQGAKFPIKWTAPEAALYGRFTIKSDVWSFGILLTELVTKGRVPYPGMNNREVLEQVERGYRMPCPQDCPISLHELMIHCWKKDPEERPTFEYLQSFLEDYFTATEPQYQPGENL
Sequence of Receptor-type tyrosine-protein phosphatase F (Homo sapiens) (P10586 whole entry): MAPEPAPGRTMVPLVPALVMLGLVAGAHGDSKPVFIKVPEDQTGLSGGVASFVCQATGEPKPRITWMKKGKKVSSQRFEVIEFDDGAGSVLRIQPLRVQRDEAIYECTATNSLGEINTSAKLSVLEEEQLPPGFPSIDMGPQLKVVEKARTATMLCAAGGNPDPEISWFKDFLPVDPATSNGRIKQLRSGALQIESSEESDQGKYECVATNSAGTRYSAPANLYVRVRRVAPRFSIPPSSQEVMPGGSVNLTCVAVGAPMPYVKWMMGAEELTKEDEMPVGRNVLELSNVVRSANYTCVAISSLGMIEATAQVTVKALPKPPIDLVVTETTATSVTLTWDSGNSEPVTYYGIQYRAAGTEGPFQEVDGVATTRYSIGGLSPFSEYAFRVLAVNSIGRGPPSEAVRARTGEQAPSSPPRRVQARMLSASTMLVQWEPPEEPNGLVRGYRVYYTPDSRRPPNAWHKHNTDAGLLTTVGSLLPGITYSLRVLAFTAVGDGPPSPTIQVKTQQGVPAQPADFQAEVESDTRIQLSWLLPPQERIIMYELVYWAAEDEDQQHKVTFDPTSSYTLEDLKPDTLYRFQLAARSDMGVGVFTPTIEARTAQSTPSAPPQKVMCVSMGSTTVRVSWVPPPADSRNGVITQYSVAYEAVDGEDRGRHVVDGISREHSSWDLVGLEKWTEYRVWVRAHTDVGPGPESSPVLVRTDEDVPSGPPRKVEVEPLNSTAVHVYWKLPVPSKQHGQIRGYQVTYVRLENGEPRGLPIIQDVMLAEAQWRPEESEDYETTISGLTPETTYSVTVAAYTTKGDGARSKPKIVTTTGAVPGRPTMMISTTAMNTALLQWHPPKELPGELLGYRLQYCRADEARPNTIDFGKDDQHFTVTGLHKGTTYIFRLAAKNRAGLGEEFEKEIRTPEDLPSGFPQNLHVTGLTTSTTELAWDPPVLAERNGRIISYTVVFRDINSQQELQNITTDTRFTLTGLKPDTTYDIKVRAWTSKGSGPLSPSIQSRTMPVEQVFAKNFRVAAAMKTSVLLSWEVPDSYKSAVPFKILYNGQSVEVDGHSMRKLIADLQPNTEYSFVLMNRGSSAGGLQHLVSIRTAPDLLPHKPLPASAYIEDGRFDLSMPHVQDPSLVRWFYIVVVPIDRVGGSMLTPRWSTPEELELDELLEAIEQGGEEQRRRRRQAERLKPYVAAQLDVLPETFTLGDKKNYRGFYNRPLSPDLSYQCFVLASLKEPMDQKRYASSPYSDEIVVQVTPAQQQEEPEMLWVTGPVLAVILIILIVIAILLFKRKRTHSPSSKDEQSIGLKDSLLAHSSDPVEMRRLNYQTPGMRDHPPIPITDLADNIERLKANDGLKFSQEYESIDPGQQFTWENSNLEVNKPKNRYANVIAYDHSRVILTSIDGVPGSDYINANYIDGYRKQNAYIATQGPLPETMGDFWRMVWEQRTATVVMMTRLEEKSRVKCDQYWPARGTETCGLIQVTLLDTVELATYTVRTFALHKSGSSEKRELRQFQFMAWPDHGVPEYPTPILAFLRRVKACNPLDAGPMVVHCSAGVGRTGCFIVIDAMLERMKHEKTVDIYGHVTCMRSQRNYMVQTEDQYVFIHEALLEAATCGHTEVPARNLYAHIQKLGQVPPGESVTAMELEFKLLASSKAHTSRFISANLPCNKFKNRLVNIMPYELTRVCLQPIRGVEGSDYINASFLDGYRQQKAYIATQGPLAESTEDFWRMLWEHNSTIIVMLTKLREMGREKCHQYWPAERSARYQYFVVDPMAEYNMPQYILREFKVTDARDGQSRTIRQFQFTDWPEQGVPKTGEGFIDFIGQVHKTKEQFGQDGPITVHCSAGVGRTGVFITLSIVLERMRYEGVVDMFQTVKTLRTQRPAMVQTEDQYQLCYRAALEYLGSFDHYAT

Structure (SMILES): O=P(O)(O)CP(=O)(O)CCCNc1nc(Nc2ccccc2)c2ncn(C3CCCC3)c2n1
K' [1]: 2.3

Structure (SMILES): CN(C)CCNc1nc(Nc2ccccc2)c2ncn(C3CCCC3)c2n1
K' [1]: 0

Structure (SMILES): N[C@H]1CC[C@H](Nc2nc(Nc3ccc(C(P(=O)(O)O)P(=O)(O)O)cc3)c3ncn(C4CCCC4)c3n2)CC1
K' [1]: 3.3

Structure (SMILES): CC(C)[C@H](CO)Nc1nc(Nc2cccc(Cl)c2)c2ncn(C(C)C)c2n1 [PURVALANOLA]
IC50 [25]: 4 nM

Structure (SMILES): O=P(O)(O)C(O)(CCCNc1nc(Nc2ccccc2)c2ncn(C3CCCC3)c2n1)P(=O)(O)O
K' [1]: 3.6

Structure (SMILES): N[C@H]1CC[C@H](Nc2nc(Nc3ccc(P(=O)(O)O)c(P(=O)(O)O)c3)c3ncn(C4CCCC4)c3n2)CC1
K' [1]: 1.8

More lines, now with the values ahead:

Selectivity [2]: 10
Selectivity [3]: > 500
Selectivity [4]: > 500
Selectivity [5]: > 500
Selectivity [6]: > 500
Selectivity [7]: > 500
Selectivity [8]: > 500
Selectivity [9]: > 500
Selectivity [10]: 1
Selectivity [11]: 100
Selectivity [12]: 100
K' [1]: 2.5
Selectivity [13]: > 500
Selectivity [14]: > 500
Selectivity [15]: > 500
Selectivity [16]: > 500
Selectivity [17]: > 500
Selectivity [18]: > 500
Selectivity [19]: 10
Selectivity [20]: 10
Selectivity [21]: > 500
Selectivity [22]: > 500
Selectivity [23]: 100
Selectivity [24]: > 500
Structure (SMILES): N[C@H]1CC[C@H](Nc2nc(Nc3ccc(P(=O)(O)CP(=O)(O)O)cc3)c3ncn(C4CCCC4)c3n2)CC1

K' [1]: 0
Structure (SMILES): N[C@H]1CC[C@H](Nc2nc(Nc3ccccc3)c3ncn(C4CCCC4)c3n2)CC1
